Molecules are shown by their SMILES. Converted amounts (≈) assume the structure as drawn. Where only a bound is given, the exact number is not on record here.

One data set concerns the target T1, human TLR7 (Homo sapiens, UniProt Q9NYK1).
T1 sequence (Q9NYK1 27-1049): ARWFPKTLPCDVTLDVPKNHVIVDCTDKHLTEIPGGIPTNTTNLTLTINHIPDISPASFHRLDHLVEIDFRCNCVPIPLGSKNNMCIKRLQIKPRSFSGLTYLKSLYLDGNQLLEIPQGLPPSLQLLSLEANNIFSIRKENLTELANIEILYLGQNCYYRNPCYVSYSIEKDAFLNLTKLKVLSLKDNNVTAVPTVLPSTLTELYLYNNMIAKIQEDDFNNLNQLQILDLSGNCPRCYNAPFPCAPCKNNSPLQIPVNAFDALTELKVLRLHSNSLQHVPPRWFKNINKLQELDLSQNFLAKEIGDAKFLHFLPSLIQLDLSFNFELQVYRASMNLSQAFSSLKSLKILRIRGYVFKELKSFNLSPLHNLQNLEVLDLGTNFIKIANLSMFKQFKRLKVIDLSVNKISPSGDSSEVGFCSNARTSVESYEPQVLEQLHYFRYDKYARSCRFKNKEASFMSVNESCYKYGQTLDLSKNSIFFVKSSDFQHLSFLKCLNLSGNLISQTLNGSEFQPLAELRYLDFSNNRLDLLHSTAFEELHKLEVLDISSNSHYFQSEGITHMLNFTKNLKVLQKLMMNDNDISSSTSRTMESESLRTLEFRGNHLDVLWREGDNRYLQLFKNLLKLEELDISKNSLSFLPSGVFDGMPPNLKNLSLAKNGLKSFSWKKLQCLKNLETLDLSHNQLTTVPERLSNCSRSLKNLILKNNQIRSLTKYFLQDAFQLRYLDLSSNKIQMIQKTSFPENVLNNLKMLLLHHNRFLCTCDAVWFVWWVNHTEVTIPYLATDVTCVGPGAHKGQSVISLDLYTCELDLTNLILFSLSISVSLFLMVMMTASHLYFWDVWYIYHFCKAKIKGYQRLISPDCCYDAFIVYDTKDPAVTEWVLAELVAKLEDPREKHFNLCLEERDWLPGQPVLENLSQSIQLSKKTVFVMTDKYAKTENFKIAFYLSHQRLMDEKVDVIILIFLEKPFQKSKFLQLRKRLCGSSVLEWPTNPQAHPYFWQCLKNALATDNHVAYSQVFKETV
Description: HEK293-Blue-hTLR7 cells assay (SEAP reporter, NF-κB activation).

Data set [1] in a line: Lyophilisation solubility assay (LYSA), kinetic solubility. The class given is physicochemical. The following applies: aqueous buffer; 0.05 M phosphate buffer (pH 6.5), from 10 mM DMSO stock after evaporation. An excerpt: The solubility of a substance can be broadly defined as the maximum amount of the substance that dissolves in a specified volume of solvent. However, it is important to understand that the solubility of a compound can vary drastically depending on the condition of the solvent (e.g. temperature and pH) and the physiochemical properties of the compound (e.g. ionisation and crystallinity). These critical factors need to be considered during solubility determination in order to generate high quality solubility data that will be useful in the progression of compounds through the discovery and development stages. The kinetic solubility of a compound is the maximum solubility of the fastest precipitating species of the compound; this is often measured using a stock solution of the compound dissolved in an organic solvent, typically dimethyl sulfoxide (DMSO), as the starting material. […] The precipitate formed, which is rarely determined during the assessment, could be any combination of various possible solid states of the compound. Given the level of supersaturation that could occur when an organic solvent is diluted in water, kinetic solubility values are typically higher than the corresponding thermodynamic (equilibrium) solubility values. Solubility assays in the early discovery process often determine kinetic solubility. The lyophilisation solubility assay (LYSA) is a high throughput kinetic solubility assay for the early drug discovery process.
Samples were prepared in duplicate from 10 mM DMSO stock solution. After evaporation of DMSO with a centrifugal vacuum evaporator, the compounds were solved in 0.05 M phosphate buffer (pH 6.5), stirred for one hour and shaken for two hours. After one night, the solutions were filtered using a microtiter filter plate. Then the filtrate and its 1/10 dilution were analyzed by HPLC-UV. […] The results were in μg/mL. […] It should be noted that metastable solid phases may form during the evaporation step, and the method might therefore produce higher solubility values than assays using the stable polymorph as the starting material.

Data set [2] is described as follows: Thermodynamic solubility assay (THESA), equilibrium solubility. Format: physicochemical. The following applies: 22 °C, aqueous buffer, thermodynamic from solid; 50 mM phosphate buffer (pH 6.5), room temperature (22±2° C.). On the procedure:
The thermodynamic (equilibrium) solubility is the saturation solubility of a compound at the end of the dissolution process, where the dissolved compound is in equilibrium with the undissolved material in excess. The thermodynamic solubility is determined by dispensing a solid compound into a solvent. This is often deemed as the true solubility of the compound and is a critical piece of information in formulation development. The thermodynamic solubility assay (THESA) is a widely used tool for the measurement of equilibrium solubility for the later drug discovery process and is considered as a gold standard solubility assay.
Approximately 1-2 mg of each compound was added into 300 μL of 50 mM phosphate buffer (pH 6.5) at room temperature (22±2° C.). Each sample is placed in a microanalysis tube, which was sonicated for 1 h and shaken for 2 h. All suspensions were left overnight (about 16 h). On the next day, the samples were filtered into a V-bottom plate with a micronic filterplate to separate the solid material from the solution. Then, all solutions were diluted into 96 well V-bottom microplates and analyzed by UPLC-UV. The calibration line was established by UPLC using 5 different dilutions of the compound in a DMSO stock solution, made in micronic tubes (concentration approximately 1 mg/mL). Dilutions took place with DMSO. From this regression equation the solubility of the compound was determined. In cases where the drug was completely dissolved in the buffer, the value for equilibrium solubility was assumed to be higher than the value determined by UPLC and reported as such.

Description for human TLR7: A stable HEK293-Blue-h TLR7 cell line was purchased from InvivoGen (Cat. #: hkb-htlr7, San Diego, California, USA). These cells were designed for studying the stimulation of human TLR7 by monitoring the activation of NF-κB. A SEAP (secreted embryonic alkaline phosphatase) reporter gene was placed under the control of the IFN-β minimal promoter fused to five NF-κB and AP-1-binding sites. The SEAP was induced by activating NF-κB and AP-1 via stimulating HEK-Blue hTLR7 cells with TLR7 ligands. Therefore the reporter expression was regulated by the NF-κB promoter upon stimulation of human TLR7 for 20 hrs. The cell culture supernatant SEAP reporter activity was determined using QUANTI-Blue™ kit (Cat. #: rep-qb1, Invivogen, San Diego, Ca, USA) at a wavelength of 640 nm, a detection medium that turns purple or blue in the presence of alkaline phosphatase.
HEK293-Blue-hTLR7 cells were incubated at a density of 250,000˜450,000 cells/mL in a volume of 180 μL in a 96-well plate in Dulbecco's Modified Eagle's medium (DMEM) containing 4.5 g/L glucose, 50 U/mL penicillin, 50 mg/mL streptomycin, 100 mg/mL Normocin, 2 mM L-glutamine, 10% (V/V) heat-inactivated fetal bovine serum for 24 hrs. Then the HEK293-Blue-hTLR7 cells were incubated with addition of 20 μL test compound in a serial dilution in the presence of final DMSO at 1% and perform incubation under 37° C. in a CO2 incubator for 20 hrs.

On to `CP(C)(=O)c1nc(N)c2[nH]c(=O)n(Cc3ccc(N4CCC(N)C4)nc3)c2n1` (stereo not shown) [Example 3, 6-amino-9-[[6-(3-aminopyrrolidin-1-yl)-3-pyridyl]methyl]-2-dimethylphosphoryl-7H-purin-8-one], for which, at human TLR7, the midpoint of the response, the EC50, lay at 28 nM. Besides, in data set [1], the kinetic solubility is greater than 600 µg/mL.

In the case of `CCP(=O)(CC)c1nc(N)c2[nH]c(=O)n(Cc3ccc(NCCN(C)C)nc3)c2n1` [Example 19, 6-amino-2-diethylphosphoryl-9-[[6-[2-(dimethylamino)ethylamino]-3-pyridyl]methyl]-7H-purin-8-one], the solubility (thermodynamic) in data set [2] worked out at 2370 µg/mL (≈ 5.47 mM). On human TLR7, this compound had an EC50 of 9 nM. Further, the solubility (kinetic) in data set [1] is greater than 580 µg/mL. As for `CC[P@@](C)(=O)c1nc(N)c2[nH]c(=O)n(Cc3ccc(N4CCN(S(C)(=O)=O)CC4)nc3)c2n1` [Example 14-A, 6-amino-2-[(R)-ethyl(methyl)phosphoryl]-9-[[6-(4-methylsulfonylpiperazin-1-yl)-3-pyridyl]methyl]-7H-purin-8-one], in data set [1], the kinetic solubility is 150 µg/mL.

`CN(C)CC1CCN(c2ccc(Cn3c(=O)[nH]c4c(N)nc(P(C)(C)=O)nc43)cn2)C1` (stereo not shown) [Example 9, 6-amino-9-[[6-[3-[(dimethylamino)methyl]pyrrolidin-1-yl]-3-pyridyl]methyl]-2-dimethylphosphoryl-7H-purin-8-one] displayed an EC50 at human TLR7 of 21 nM. Moreover, in data set [1], the kinetic solubility is greater than 650 µg/mL. Taken in the same sequence, the figures for `CP(C)(=O)c1nc(N)c2[nH]c(=O)n(Cc3ccc(N4CC5CCC4CN5)nc3)c2n1` (stereo not shown) [Example 5, 6-amino-9-[[6-(2,5-diazabicyclo[2.2.2]octan-2-yl)-3-pyridyl]methyl]-2-dimethylphosphoryl-7H-purin-8-one] were 12 nM and greater than 570 µg/mL. In the case of `CN1CCC(Nc2ccc(Cn3c(=O)[nH]c4c(N)nc(P(C)(C)=O)nc43)cn2)C1` (stereo not shown) [Example 11, 6-amino-2-dimethylphosphoryl-9-[[6-[(1-methylpyrrolidin-3-yl)amino]-3-pyridyl]methyl]-7H-purin-8-one], it took 28 nM to reach a half-maximal effect at human TLR7 (EC50). In addition, the kinetic solubility in data set [1] was greater than 620 µg/mL. On to `CC[P@](C)(=O)c1nc(N)c2[nH]c(=O)n(Cc3ccc(N4CCN(C)CC4)nc3)c2n1` [Example 13-B, 6-amino-2-[(S)-ethyl(methyl)phosphoryl]-9-[[6-(4-methylpiperazin-1-yl)-3-pyridyl]methyl]-7H-purin-8-one], for which, in data set [1], the solubility (kinetic) is greater than 530 µg/mL. On human TLR7, `CP(C)(=O)c1nc(N)c2[nH]c(=O)n(Cc3ccc(N4CC5CNCC5C4)nc3)c2n1` (stereo not shown) [Example 6, 9-[[6-(2,3,3a,4,6,6a-hexahydro-1H-pyrrolo[3,4-c]pyrrol-5-yl)-3-pyridyl]methyl]-6-amino-2-dimethylphosphoryl-7H-purin-8-one] showed a 50% effective concentration (EC50) of 27 nM. Besides, in data set [1], the solubility (kinetic) was greater than 630 µg/mL.

With `CP(C)(=O)c1nc(N)c2[nH]c(=O)n(Cc3ccc(NC4CCOCC4)nc3)c2n1` [Example 8, 6-amino-2-dimethylphosphoryl-9-[[6-(tetrahydropyran-4-ylamino)-3-pyridyl]methyl]-7H-purin-8-one], a half-maximal response at human TLR7 (EC50) required 39 nM. The kinetic solubility in data set [1] was greater than 520 µg/mL. Regarding `CC[P@](C)(=O)c1nc(N)c2[nH]c(=O)n(Cc3ccc(N4CCN(S(C)(=O)=O)CC4)nc3)c2n1` [Example 14-B, 6-amino-2-[(S)-ethyl(methyl)phosphoryl]-9-[[6-(4-methylsulfonylpiperazin-1-yl)-3-pyridyl]methyl]-7H-purin-8-one], the kinetic solubility in data set [1] is 170 µg/mL. As for `CN1CCOC2(CCN(c3ccc(Cn4c(=O)[nH]c5c(N)nc(P(C)(C)=O)nc54)cn3)CC2)C1` [Example 10, 6-amino-2-dimethylphosphoryl-9-[[6-(4-methyl-1-oxa-4,9-diazaspiro[5.5]undecan-9-yl)-3-pyridyl]methyl]-7H-purin-8-one], on human TLR7, a half-maximal effect (EC50) was put at 24 nM. The solubility (kinetic) in data set [1] was greater than 650 µg/mL. Taken in the same sequence, the figures for `CCN(C)CCNc1ccc(Cn2c(=O)[nH]c3c(N)nc(P(C)(C)=O)nc32)cn1` [Example 12, 6-amino-2-dimethylphosphoryl-9-[[6-[2-[ethyl(methyl)amino]ethylamino]-3-pyridyl]methyl]-7H-purin-8-one] were 84 nM and greater than 560 µg/mL.

`CC[P@@](C)(=O)c1nc(N)c2[nH]c(=O)n(Cc3ccc(NCCNC)nc3)c2n1` [Example 17, 6-amino-2-[(R)-ethyl(methyl)phosphoryl]-9-[[6-[2-(methylamino)ethylamino]-3-pyridyl]methyl]-7H-purin-8-one] returned an EC50 at human TLR7 of 45 nM. Moreover, the kinetic solubility in data set [1] was greater than 540 µg/mL. As for `CP(C)(=O)c1nc(N)c2[nH]c(=O)n(Cc3ccc(NCCN4CCCC4)nc3)c2n1` [Example 7, 6-amino-2-dimethylphosphoryl-9-[[6-(2-pyrrolidin-1-ylethylamino)-3-pyridyl]methyl]-7H-purin-8-one], at human TLR7, the midpoint of the response, the EC50, lay at 38 nM. Also, the solubility (kinetic) in data set [1] is greater than 540 µg/mL. Taken in the same sequence, the figures for `CC1(C)CN(c2ccc(Cn3c(=O)[nH]c4c(N)nc(P(C)(C)=O)nc43)cn2)CCN1` [Example 4, 6-amino-2-dimethylphosphoryl-9-[[6-(3,3-dimethylpiperazin-1-yl)-3-pyridyl]methyl]-7H-purin-8-one] were 10 nM and greater than 640 µg/mL.

For orientation: EC50 means the concentration that produces a half-maximal response. A low value points to higher potency in that assay. As a reminder, the kinetic solubility is the concentration staying in solution when a stock, usually in DMSO, is diluted into the medium. One may read the thermodynamic solubility as solubility found after equilibrating the solid with the medium.

The values above are taken from US20250215032A1, “PHOSPHORYLPURINONE COMPOUNDS FOR THE TREATMENT OF CANCER” (Hoffmann-La Roche Inc., priority 2022, published 2025).
